Measurements: US20220168431A1, “METHODS OF TREATING CANCER USING TRIMETAZIDINE-BASED COMPOUNDS” (IMBRIA PHARMACEUTICALS, INC., priority 2019, published 2022)

Key:
Details in all cases: 10 μM CV-8814
[1] = biological target: Cyclooxygenase COX-1 (Homo sapiens, UniProt P23219); assay type: biochemical
[2] = biological target: Monoamine Oxidase MAO-A (Homo sapiens, UniProt P21397); assay type: biochemical
[3] = biological target: Peptidase, CTSG (Cathepsin G) (Homo sapiens, UniProt P08311); assay type: biochemical
Peptidase, CTSG (Cathepsin G), sequence (P08311 21-244): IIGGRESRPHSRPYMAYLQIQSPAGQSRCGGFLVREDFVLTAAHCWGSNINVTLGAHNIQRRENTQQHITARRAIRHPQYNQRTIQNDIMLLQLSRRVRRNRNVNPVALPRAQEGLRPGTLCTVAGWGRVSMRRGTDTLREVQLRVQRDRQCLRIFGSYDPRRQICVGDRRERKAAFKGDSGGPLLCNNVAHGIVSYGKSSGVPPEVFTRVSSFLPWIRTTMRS

[4] = biological target: Adenosine A1 (Homo sapiens, UniProt P30542); assay type: binding
Adenosine A1, sequence (P30542 whole entry): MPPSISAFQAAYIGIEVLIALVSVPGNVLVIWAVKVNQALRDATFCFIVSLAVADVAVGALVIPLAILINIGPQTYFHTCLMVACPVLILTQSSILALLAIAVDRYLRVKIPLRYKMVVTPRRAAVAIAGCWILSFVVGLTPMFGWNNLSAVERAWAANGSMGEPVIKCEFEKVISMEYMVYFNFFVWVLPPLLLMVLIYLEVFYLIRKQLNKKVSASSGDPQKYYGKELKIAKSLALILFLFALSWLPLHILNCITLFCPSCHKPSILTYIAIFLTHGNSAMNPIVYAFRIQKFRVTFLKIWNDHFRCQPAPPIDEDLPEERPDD

[5] = biological target: Adrenergic α1B (Rattus norvegicus, UniProt P15823); assay type: binding
[6] = biological target: Adrenergic α2B (Homo sapiens, UniProt P18089); assay type: binding
[7] = biological target: Adrenergic β1 (Homo sapiens, UniProt P08588); assay type: binding
[8] = biological target: Bradykinin B2 (Homo sapiens, UniProt P30411); assay type: binding
[9] = biological target: Calcium Channel N-Type (Rattus norvegicus, UniProt Q02294); assay type: binding
[10] = biological target: Chemokine CXCR2 (IL-8RB) (Homo sapiens, UniProt P25025); assay type: binding
[11] = biological target: Cholecystokinin CCK1 (CCKA) (Homo sapiens, UniProt P32238); assay type: binding
Cholecystokinin CCK1 (CCKA), sequence (P32238 whole entry): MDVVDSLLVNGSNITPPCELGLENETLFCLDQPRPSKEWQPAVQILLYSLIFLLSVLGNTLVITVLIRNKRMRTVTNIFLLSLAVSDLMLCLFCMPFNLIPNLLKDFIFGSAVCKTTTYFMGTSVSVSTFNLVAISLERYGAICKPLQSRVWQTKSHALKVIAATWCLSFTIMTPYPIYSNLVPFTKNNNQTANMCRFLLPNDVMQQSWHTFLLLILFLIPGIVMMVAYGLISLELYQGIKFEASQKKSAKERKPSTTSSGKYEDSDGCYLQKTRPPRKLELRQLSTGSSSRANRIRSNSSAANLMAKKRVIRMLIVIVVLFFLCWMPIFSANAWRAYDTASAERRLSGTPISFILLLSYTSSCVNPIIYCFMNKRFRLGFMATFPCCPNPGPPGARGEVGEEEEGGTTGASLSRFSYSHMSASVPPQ

[12] = biological target: Cholecystokinin CCK2 (CCKB) (Homo sapiens, UniProt P32239); assay type: binding
[13] = biological target: Dopamine D2S (Homo sapiens, UniProt P14416); assay type: binding
[14] = biological target: Endothelin ETA (Homo sapiens, UniProt P25101); assay type: binding
[15] = biological target: Estrogen ERα (Homo sapiens, UniProt P03372); assay type: binding
[16] = biological target: Histamine H1 (Homo sapiens, UniProt P35367); assay type: binding
Histamine H1, sequence (P35367 whole entry): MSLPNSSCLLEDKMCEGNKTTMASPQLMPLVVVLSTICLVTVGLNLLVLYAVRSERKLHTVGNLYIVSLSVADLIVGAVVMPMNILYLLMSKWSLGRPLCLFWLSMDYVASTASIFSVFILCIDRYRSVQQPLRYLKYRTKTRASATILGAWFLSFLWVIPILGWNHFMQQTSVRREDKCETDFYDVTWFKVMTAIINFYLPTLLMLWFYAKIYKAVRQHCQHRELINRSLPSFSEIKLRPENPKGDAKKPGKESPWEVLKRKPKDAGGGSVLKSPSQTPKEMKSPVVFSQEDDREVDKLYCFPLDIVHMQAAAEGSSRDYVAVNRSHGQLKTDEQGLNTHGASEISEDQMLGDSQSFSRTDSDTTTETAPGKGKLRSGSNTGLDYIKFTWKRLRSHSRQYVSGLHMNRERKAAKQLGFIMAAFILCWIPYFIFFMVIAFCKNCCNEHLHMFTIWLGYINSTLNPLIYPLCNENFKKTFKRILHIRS

[17] = biological target: Muscarinic M2 (Homo sapiens, UniProt P08172); assay type: binding
Muscarinic M2, sequence (P08172 whole entry): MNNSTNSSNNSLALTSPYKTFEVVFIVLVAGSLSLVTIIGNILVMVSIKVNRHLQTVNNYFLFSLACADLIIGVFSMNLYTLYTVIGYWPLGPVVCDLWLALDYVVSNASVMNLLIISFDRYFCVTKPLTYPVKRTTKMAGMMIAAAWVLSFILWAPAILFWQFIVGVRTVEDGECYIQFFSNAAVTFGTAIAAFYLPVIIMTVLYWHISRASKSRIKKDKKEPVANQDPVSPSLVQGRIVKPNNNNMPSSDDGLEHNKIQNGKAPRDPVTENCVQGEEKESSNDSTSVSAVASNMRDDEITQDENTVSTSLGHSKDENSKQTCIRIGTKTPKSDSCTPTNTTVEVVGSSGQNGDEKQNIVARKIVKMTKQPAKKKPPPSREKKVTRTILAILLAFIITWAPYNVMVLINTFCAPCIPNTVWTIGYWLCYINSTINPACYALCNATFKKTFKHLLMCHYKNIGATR

[18] = biological target: Muscarinic M4 (Homo sapiens, UniProt P08173); assay type: binding
[19] = biological target: Neuropeptide Y Y1 (Homo sapiens, UniProt P25929); assay type: binding
[20] = biological target: Opiate δ1 (OP1, DOP) (Homo sapiens, UniProt P41143); assay type: binding
[21] = biological target: Serotonin (5-Hydroxytryptamine) 5-HT2B (Homo sapiens, UniProt P41595); assay type: binding
[22] = biological target: Serotonin (5-Hydroxytryptamine) 5-HT2C (Homo sapiens, UniProt P28335); assay type: binding
[23] = biological target: Serotonin (5-Hydroxytryptamine) 5-HT3 (Homo sapiens, UniProt P46098); assay type: binding
Serotonin (5-Hydroxytryptamine) 5-HT3, sequence (P46098 24-478): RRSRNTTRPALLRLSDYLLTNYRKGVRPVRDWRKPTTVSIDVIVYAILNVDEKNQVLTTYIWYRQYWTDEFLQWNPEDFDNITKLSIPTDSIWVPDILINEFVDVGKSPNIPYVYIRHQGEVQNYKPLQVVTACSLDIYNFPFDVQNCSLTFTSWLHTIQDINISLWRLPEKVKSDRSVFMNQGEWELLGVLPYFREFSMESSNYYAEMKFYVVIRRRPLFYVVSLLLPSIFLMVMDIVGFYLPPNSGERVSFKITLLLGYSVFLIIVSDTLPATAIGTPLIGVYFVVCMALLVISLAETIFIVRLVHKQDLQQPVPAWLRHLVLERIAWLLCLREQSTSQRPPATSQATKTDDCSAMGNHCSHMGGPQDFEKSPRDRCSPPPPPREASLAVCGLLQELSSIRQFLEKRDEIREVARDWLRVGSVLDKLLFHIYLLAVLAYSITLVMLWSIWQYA

[24] = biological target: Transporter, Dopamine (DAT) (Homo sapiens, UniProt Q01959); assay type: binding
Transporter, Dopamine (DAT), sequence (Q01959 whole entry): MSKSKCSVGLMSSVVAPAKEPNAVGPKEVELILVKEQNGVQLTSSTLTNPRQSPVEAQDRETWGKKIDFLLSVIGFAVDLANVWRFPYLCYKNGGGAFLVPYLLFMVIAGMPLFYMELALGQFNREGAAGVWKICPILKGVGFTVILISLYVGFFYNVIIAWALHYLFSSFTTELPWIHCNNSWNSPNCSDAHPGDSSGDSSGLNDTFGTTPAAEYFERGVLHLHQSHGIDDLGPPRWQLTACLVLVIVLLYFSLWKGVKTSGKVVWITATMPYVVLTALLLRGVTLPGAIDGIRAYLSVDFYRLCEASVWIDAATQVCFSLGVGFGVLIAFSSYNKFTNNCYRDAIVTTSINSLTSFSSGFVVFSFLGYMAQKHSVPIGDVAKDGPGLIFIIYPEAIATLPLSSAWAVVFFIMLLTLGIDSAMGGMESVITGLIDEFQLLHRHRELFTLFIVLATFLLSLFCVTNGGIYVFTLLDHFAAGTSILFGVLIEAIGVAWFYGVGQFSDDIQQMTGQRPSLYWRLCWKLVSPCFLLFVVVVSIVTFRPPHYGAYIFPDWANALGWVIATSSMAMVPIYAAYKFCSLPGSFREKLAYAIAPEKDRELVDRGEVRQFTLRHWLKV

[25] = biological target: Transporter, Serotonin (5-Hydroxytryptamine) (SERT) (Homo sapiens, UniProt P31645); assay type: binding
Transporter, Serotonin (5-Hydroxytryptamine) (SERT), sequence (P31645 whole entry): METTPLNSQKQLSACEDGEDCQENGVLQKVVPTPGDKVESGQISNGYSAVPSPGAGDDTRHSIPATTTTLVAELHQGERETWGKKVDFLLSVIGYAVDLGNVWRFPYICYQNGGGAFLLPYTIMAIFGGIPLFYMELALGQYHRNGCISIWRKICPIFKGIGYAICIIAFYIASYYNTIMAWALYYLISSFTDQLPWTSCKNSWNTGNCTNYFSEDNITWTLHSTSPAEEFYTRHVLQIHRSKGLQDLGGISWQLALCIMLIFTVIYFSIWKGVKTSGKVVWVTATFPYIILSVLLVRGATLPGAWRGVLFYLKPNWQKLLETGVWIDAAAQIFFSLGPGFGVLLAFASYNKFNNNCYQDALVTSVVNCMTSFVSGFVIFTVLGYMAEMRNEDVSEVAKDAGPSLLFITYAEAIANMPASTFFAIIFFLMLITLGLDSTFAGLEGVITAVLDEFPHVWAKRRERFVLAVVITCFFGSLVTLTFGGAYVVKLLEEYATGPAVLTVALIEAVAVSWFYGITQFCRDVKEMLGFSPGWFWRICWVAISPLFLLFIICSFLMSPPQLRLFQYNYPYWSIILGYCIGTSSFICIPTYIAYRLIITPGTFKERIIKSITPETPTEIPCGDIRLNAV

Measured: inhibition at 10 µM

Monoamine Oxidase MAO-A, sequence (P21397 whole entry): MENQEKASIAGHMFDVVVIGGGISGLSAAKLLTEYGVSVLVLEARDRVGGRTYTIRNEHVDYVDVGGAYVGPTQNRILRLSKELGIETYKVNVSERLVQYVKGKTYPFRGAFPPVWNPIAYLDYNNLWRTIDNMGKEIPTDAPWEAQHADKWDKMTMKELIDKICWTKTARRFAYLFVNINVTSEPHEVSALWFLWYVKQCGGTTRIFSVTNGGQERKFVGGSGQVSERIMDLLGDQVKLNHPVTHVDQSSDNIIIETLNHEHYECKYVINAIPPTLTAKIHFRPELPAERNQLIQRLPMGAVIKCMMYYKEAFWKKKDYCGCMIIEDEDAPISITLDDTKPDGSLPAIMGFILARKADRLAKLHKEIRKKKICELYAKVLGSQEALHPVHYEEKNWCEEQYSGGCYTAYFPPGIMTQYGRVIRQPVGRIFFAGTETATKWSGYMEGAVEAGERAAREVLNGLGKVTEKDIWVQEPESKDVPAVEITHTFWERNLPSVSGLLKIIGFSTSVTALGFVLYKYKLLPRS
Cyclooxygenase COX-1, sequence (P23219 24-599): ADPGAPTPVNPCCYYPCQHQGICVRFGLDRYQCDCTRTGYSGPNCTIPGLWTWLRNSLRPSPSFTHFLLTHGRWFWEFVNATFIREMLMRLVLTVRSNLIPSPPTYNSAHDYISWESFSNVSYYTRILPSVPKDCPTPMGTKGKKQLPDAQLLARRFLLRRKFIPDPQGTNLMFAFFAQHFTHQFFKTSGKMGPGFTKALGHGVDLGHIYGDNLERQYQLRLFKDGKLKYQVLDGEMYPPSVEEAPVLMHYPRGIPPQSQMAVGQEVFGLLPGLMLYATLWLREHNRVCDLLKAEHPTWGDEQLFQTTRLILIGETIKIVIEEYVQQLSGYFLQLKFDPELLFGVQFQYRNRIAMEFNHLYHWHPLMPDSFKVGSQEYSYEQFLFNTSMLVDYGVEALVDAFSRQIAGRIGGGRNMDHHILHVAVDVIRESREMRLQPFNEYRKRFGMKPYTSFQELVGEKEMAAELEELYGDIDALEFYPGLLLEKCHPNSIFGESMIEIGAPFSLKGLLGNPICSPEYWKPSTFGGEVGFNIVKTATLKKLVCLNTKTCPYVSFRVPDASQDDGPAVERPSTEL

COc1ccc(CN2CCN(CCO)CC2)c(OC)c1OC [CV-8814, 2-(4-(2,3,4-trimethoxybenzyl)piperazin-1-yl)ethan-1-01]
< 50%: all assays above
